# According to patent publication EP0538469A1, “SULFONANILIDE DERIVATIVE AND MEDICINE” (NIPPON SHINYAKU COMPANY, LIMITED, priority 1990, dated 1991):
# Like-named read-outs stand apart in the source and are kept apart here. Marks after values point to notes of the source that are not given here.
# Key:
# [1] = Acute toxicity, oral, rats; format: in vivo; settings: rat, in vivo, SD rats, read-out: Rats LD₅₀
# Experimental: (§1) Numbers of mice (ddY-strain, male, 6-8 weeks age) and rats (SD strain, male, 6-7 weeks age) in each group were 4 and 6, respectively.
# (§2) The drug to be tested was orally administered at the dose of 10 ml/kg using an oral probe to the animals which were fasted since one day before (for 16-18 hours). After giving the drug, the animals were returned to the state where both feed and water were available and the general symptom and the dead cases, if any, were checked for two weeks. The drug was suspended in physiological saline solution containing 0.5% of methylcellulose (0.5% MC) and the suspension was given to the animals by oral route.
# rats (SD strain, male) = assay: Acute toxicity, oral, rats; format: in vivo; settings: observed two weeks
# Experimental: as §1, §2
# male rabbits [2] = assay: Action to intra urethral pressure and blood pressure, administration to duodenum; format: in vivo
# Experimental: (§3) The experiment was conducted using male rabbits of body weight of 1.4-3.1 kg under fasted condition. The animals were fixed at backs under uretrane(1.2g/kg s.c.) anesthesia, abdomen was subjected to a midline incision and bladder was exposed. In order to prevent the urine stored in the bladder on the intra urethral pressure, the urine in the bladder was compulsorily discharged out of the body. After that, a catheter was inserted into both ureters and the urine discharged from kidney was introduced outside.
# (§4) The intra urethral pressure(IUP) at the urethra tract of about 0.5-1 cm distance from the neck of the bladder was measured using a microtip transducer transducer equipped with a baloon (filled with physiological saline solution) at the top end. Further, polyethylene tube was inserted into femoral artery to measure the blood pressure (BP).
# Abdomen right above stomach was subjected to a midline incision and, after that, the drug to be tested suspended in 0.5% methyl cellulose (0.5% MC) was administered at the dose of 0.5ml/kg to the duodenum. […] The above administration to duodenum corresponded to oral administration as the administration into digestive organ in anethetized animals.
# femoral artery = assay: Contraction of isolated femoral artery (Magnus vessel, cumulative concentration/response curves); format: cell-based, rabbits; settings: Oryctolagus cuniculus
# Experimental: (§5) The experiment was conducted using female rabbits of 2 to 3.5 kg body weight.
# (§6) The animals were killed by draining the blood out under anesthetizing with pentobarbital (30 mg/kg, by intravenous injection) and smooth muscle of urethra and femoral artery were excised. Each of the excised samples was placed in a Magnus vessel filled with a modified Krebs solution (at 37°C; under mixed gas) and both smooth muscle of urethra and femoral artery were suspended with 1 g load.
# (§7) The drug to be tested was accumulated to contract the samples whereby the concentration/response curves were obtained wherefrom ED₅₀ (M) and pD₂ were calculated and the selectivity to urethra was determined.
# smooth muscle of urethra = assay: Contraction of isolated smooth muscle of urethra (Magnus vessel, cumulative concentration/response curves); format: cell-based, rabbits; settings: for EC50: Oryctolagus cuniculus
# Experimental: as §5, §6, §7
# mice (ddY-strain, male) = assay: Acute toxicity, oral, mice; format: in vivo; settings: observed two weeks
# Experimental: as §1, §2
# male rabbits [3] = assay: Action to intra urethral pressure and blood pressure, intravenous administration; format: in vivo
# Experimental: as §3, §4
# The drug to be tested was injected into the vein of ear every fifteen minutes and the maximum responses of the increasing action of intra urethral pressure tract and of the increasing action of blood pressure were measured at each dose.
# α₁-adrenoceptors = assay: α₁-Adrenoceptor binding assay with [³H]-prazosin, brain membrane; design: species or system Rats
# Experimental: Preparation of the receptor membrane was conducted as follows. Rats were decapitated, brain except cerebellum was excised, weighed, 40 times as much 50mM Tris-hydrochloric acid buffer (pH: 7.4) was added and the mixture was homogenized with a Polytron homogenizer and centrifuged for 20 minutes at 39,000 x g. Buffer solution was added to the precipitate and the resulting suspension was again centrifuged for 20 minutes. Then the precipitate was suspended in 40 volumes of Tris-hydrochloric acid buffer to prepare a receptor sample. The above operations were all conducted at 4°C.
# α ₁-Adrenoceptor binding assay was conducted as a radioactive ligand using a [³H]-prazosin.
# First, the receptor sample prepared as above was incubated in 50 mM Tris-hydrochloric acid buffer (pH 7.4) with [³H]-prazosin (0.2nM) at 25°C for 30 minutes. […] The mixture was allowed to stand at room temperature for not shorter than about 10 hours and the radioactivity was measured with a liquid scintillation counter to give a total binding.
# The same reaction as above was conducted in the presence of 1 µM of prazosin as well and the resulting radioactivity was defined as nonspecific binding. […]
# The inhibition activity of the test drug to the [³H]-prazosin binding was calculated by measuring the amount of the specific [ ³H] -prazosin binding in the presence of various concentrations of the drug. […]
# [4] = 0.1 mg/kg i.d., 10 min after administration
# [5] = 0.1 mg/kg i.d., 20 min after administration
# [6] = 0.1 mg/kg i.d., 30 min after administration
# [7] = 0.1 mg/kg i.d., 60 min after administration
# [8] = 0.1 mg/kg i.d., 90 min after administration
# [9] = 0.1 mg/kg i.d., 120 min after administration
# [10] = 0.1 mg/kg i.d., 180 min after administration
# [11] = 0.3 mg/kg i.d., 10 min after administration
# [12] = 0.3 mg/kg i.d., 20 min after administration
# [13] = 0.3 mg/kg i.d., 30 min after administration
# [14] = 0.3 mg/kg i.d., 60 min after administration
# [15] = 0.3 mg/kg i.d., 90 min after administration
# [16] = 0.3 mg/kg i.d., 120 min after administration
# [17] = 0.3 mg/kg i.d., 180 min after administration
compound,measurement,setting,value
"CS(=O)(=O)Nc1ccc(F)c([C@@H](O)CN)c1.Cl [(49B), (R)-(-)-3'-(2-Amino-1-hydroxyethyl)-4'-fluoromethanesulfonanilide hydrochloride]",LD50 at 336 h,[1],> 1000 mg/kg
same,Rats Dead/ Total,"rats (SD strain, male); 500 mg/kg",0 / 6
same,Rats Dead/ Total,"rats (SD strain, male); 1000 mg/kg",0 / 6
same,Change(%) BP,male rabbits [2]; [4],2.7%
same,Change(%) BP,male rabbits [2]; [5],1.9%
same,Change(%) BP,male rabbits [2]; [6],3.3%
same,Change(%) BP,male rabbits [2]; [7],0.5%
same,Change(%) BP,male rabbits [2]; [8],-5.0%
same,Change(%) BP,male rabbits [2]; [9],-9.8%
same,Change(%) BP,male rabbits [2]; [10],-14.9%
same,Change(%) BP,male rabbits [2]; [11],2.8%
same,Change(%) BP,male rabbits [2]; [12],4.0%
same,Change(%) BP,male rabbits [2]; [13],4.7%
same,Change(%) BP,male rabbits [2]; [14],7.9** %
same,Change(%) BP,male rabbits [2]; [15],6.5** %
same,Change(%) BP,male rabbits [2]; [16],3.3* %
same,Change(%) BP,male rabbits [2]; [17],-10.0%
same,Change(%) IUP,male rabbits [2]; [4],10.5%
same,Change(%) IUP,male rabbits [2]; [5],11.0%
same,Change(%) IUP,male rabbits [2]; [6],20.7%
same,Change(%) IUP,male rabbits [2]; [7],29.4%
same,Change(%) IUP,male rabbits [2]; [8],28.9%
same,Change(%) IUP,male rabbits [2]; [9],30.3%
same,Change(%) IUP,male rabbits [2]; [10],24.1%
same,Change(%) IUP,male rabbits [2]; [11],21.5%
same,Change(%) IUP,male rabbits [2]; [12],44.2** %
same,Change(%) IUP,male rabbits [2]; [13],65.2* %
same,Change(%) IUP,male rabbits [2]; [14],84.1** %
same,Change(%) IUP,male rabbits [2]; [15],114.9* %
same,Change(%) IUP,male rabbits [2]; [16],101.5** %
same,Change(%) IUP,male rabbits [2]; [17],95.7** %
same,dose resulting in intraurethral pressure increasing action of the same grade as known amidephrine,"male rabbits [2]; administration to digestive organ, relative to amidephrine dose",about one-tenth
same,EC50,femoral artery; read-out: ED₅₀ Femoral Artery(B),3.21 µM
same,EC50,femoral artery; read-out: pD₂ Femoral Artery(B),3.24 µM
same,Selectivity (B/A),smooth muscle of urethra; ED₅₀ femoral artery / ED₅₀ urethra,0.73
same,EC50,smooth muscle of urethra; read-out: ED₅₀ Urethra(A),4.41 µM
same,EC50,smooth muscle of urethra; read-out: pD₂ Urethra(A),4.37 µM
same,Mice Dead/ Total,"mice (ddY-strain, male); 1000 mg/kg",0 / 4
same,Mice Dead/ Total,"mice (ddY-strain, male); 3000 mg/kg",0 / 4
same,Selectivity (B/A),"male rabbits [3]; BP(ED30%↑) / IUP(ED150%↑), i.v.",5.3
same,ED (30%),"male rabbits [3]; Oryctolagus cuniculus, iv, read-out: BP(B) [BP(ED30%↑)]",0.048 mg/kg
same,"inhibiting action to binding of [³H]-prazosin, stronger than amidephrine",α₁-adrenoceptors; relative to amidephrine,about twice
same,"inhibiting action to binding of [³H]-prazosin, stronger than phenylephrine",α₁-adrenoceptors; relative to phenylephrine,about five times
